For 9 molecules, IC50 results are on record in patent US9840478B2 (MERCK SHARP & DOHME CORP., priority 2013, dated 2017).

pIC50: −log10 of the molar value.

This assay concerns HIV-1 (H9IIIB strain). As to the kind of experiment: Cell-based HIV infection assay using a reporter (Cell-Based), MT4-GFP cells. As to conditions: Human immunodeficiency virus 1, MT4-GFP cells infected with HIV-1 H9IIIB; 50% normal human serum; mean of at least two independent experiments; read-out: Cell-based IP. The method in brief: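 MT4-GFP cells (HIV LTR-driven GFP) infected 24 h with HIV-1 H9IIIB at low MOI, then washed and plated with compounds in RPMI + 50% normal human serum, 0.4% DMSO final. Green cells counted at 24 and 48 h; R0 = 48 h/24 h ratio, inhibition normalized to DMSO and triple-drug control; IC50 from 4-parameter fit.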

With `C[C@H]1CNC[C@H](CCc2c(F)cccc2NC(=O)[C@@H](N)[C@@H](c2cc(F)cc(F)c2)C2CCOCC2)N1S(=O)(=O)c1ccccc1` [Example 294, (βR)-3,5-difluoro-N-(3-fluoro-2-{2-[(2S,6S)-6-methyl-1-(phenylsulfonyl)piperazin-2-yl]ethyl}phenyl)-β-(tetrahydro-2H-pyran-4-yl)-L-phenylalaninamide], the pIC50 was 7.40.
Consider `COC(=O)N[C@H](C(=O)Nc1cccc(F)c1CC[C@H]1CNC[C@H](C)N1S(=O)(=O)c1ccccc1)[C@@H](c1ccc(F)c(F)c1)C1CCOCC1` [Example 295, (βR)-3,4-difluoro-N-(3-fluoro-2-{2-[(2S,6S)-6-methyl-1-(phenylsulfonyl)piperazin-2-yl]ethyl}phenyl)-Nα-(methoxycarbonyl)-β-(tetrahydro-2H-pyran-4-yl)-L-phenylalaninamide], for which the pIC50 was 8.38.
Consider `COC(=O)N[C@H](C(=O)Nc1cccc(F)c1CC[C@H]1CNC[C@H](C)N1S(=O)(=O)c1ccccc1)[C@@H](c1cc(F)cc(F)c1)C1CCOCC1` [Example 296, (βR)-3,5-difluoro-N-(3-fluoro-2-{2-[(2S,6S)-6-methyl-1-(phenylsulfonyl)piperazin-2-yl]ethyl}phenyl)-Nα-(methoxycarbonyl)-β-(tetrahydro-2H-pyran-4-yl)-L-phenylalaninamide], for which the pIC50 was 8.00.
Take `COC(=O)N[C@H](C(=O)Nc1cccc(F)c1CC[C@H]1CNC[C@H](C)N1S(=O)(=O)c1ccccc1)C1(c2ccc(F)c(F)c2)CCOCC1` [Example 297, methyl {(1S)-1-[4-(3,4-difluorophenyl)tetrahydro-2H-pyran-4-yl]-2-[(3-fluoro-2-{2-[(2S,6S)-6-methyl-1-(phenylsulfonyl)piperazin-2-yl]ethyl}phenyl)amino]-2-oxoethyl}carbamate]: the pIC50 was 7.80.
As for `C[C@@H]1CNC[C@H](CCc2c(F)cncc2NC(=O)[C@@H](N)[C@@H](c2ccc(Cl)cc2)C2CCOCC2)N1S(=O)(=O)c1ccc(Cl)cc1` [Example 298, (βR)-4-chloro-N-[4-(2-{(2S,6R)-1-[(4-chlorophenyl)sulfonyl]-6-methylpiperazin-2-yl}ethyl)-5-fluoropyridin-3-yl]-β-(tetrahydro-2H-pyran-4-yl)-L-phenylalaninamide], the pIC50 was 7.44.
In the case of `C[C@@H]1C[C@](c2ccc(Cl)cc2)([C@H](N)C(=O)Nc2cccc(F)c2CC[C@H]2CNC[C@H](C)N2S(=O)(=O)c2ccccc2)C[C@H](C)O1` [Example 300, (S)-2-amino-2-((2R,4r,6S)-4-(4-chlorophenyl)-2,6-dimethyltetrahydro-2H-pyran-4-yl)-N-(3-fluoro-2-(2-((2S,6S)-6-methyl-1-(phenylsulfonyl)piperazin-2-yl)ethyl)phenyl)acetamide], the pIC50 is 7.01.
Then `C[C@@H]1C[C@](c2ccc(Cl)cc2)([C@H](N)C(=O)Nc2cccc(F)c2CC[C@H]2CNC[C@@H](C)N2S(=O)(=O)c2ccccc2)C[C@H](C)O1` [Example 301, (S)-2-amino-2-((2R,4r,6S)-4-(4-chlorophenyl)-2,6-dimethytetrahydro-2H-pyran-4-yl)-N-(3-fluoro-2-(2-((2S,6R)-6-methyl-1-(phenylsulfonyl)piperazin-2-yl)ethyl)phenyl)acetamide], with 6.32; and `O=C(C[C@@H](c1ccc(F)cc1)c1cc(F)cc(F)c1)Nc1cncc(F)c1CC[C@H]1CNCCN1S(=O)(=O)CC1CC1` [Example 302, (3S)-N-[4-(2-{(2S)-1-[(cyclopropylmethyl)sul-fonyl]piperazin-2-yl}ethyl)-5-fluoropyridin-3-yl]-3-(3,5-difluorophenyl)-3-(4-fluorophenyl)propanamide], with 7.62; and `O=C(C[C@@H](c1ccc(F)cc1)c1cc(F)cc(F)c1)Nc1cncc(F)c1CC[C@H]1CNCCN1S(=O)(=O)c1ccccn1` [Example 304, (3S)-3-(3,5-difluorophenyl)-3-(4-fluorophenyl)-N-(5-fluoro-4-{2-[(2S)-1-(pyridin-2-ylsulfonyl)piperazin-2-yl]ethyl}pyridin-3-yl)propanamide], with 8.44.
